Assay: excess molar enthalpy (molar enthalpy of mixing); xn = mol fraction of the nth substance listed
Conditions: 298.15 K, 101 kPa, Liquid, ISOTHERMAL TITRATION CALORIMETRY

CCCCCCCCC(C)=O [2-decanone] + CCCCCCCCCCCCCC
Conditions | excess molar enthalpy [kcal/mol]
x1 = 0.0282 | 0.0361
x1 = 0.0549 | 0.0664
x1 = 0.0805 | 0.092
x1 = 0.1041 | 0.114
x1 = 0.1268 | 0.132
x1 = 0.1484 | 0.148
x1 = 0.1741 | 0.165
x1 = 0.1983 | 0.18
x1 = 0.2212 | 0.192
x1 = 0.2427 | 0.202
x1 = 0.2632 | 0.211
x1 = 0.2825 | 0.218
x1 = 0.3044 | 0.225
x1 = 0.325 | 0.23
x1 = 0.3444 | 0.235
x1 = 0.3628 | 0.238
x1 = 0.3801 | 0.241
x1 = 0.3965 | 0.243
x1 = 0.4145 | 0.245
x1 = 0.4313 | 0.245
x1 = 0.4472 | 0.246
x1 = 0.4623 | 0.246
x1 = 0.4765 | 0.245
x1 = 0.4901 | 0.245
x1 = 0.5029 | 0.244
x1 = 0.5151 | 0.242
x1 = 0.5292 | 0.241
x1 = 0.5425 | 0.239
x1 = 0.555 | 0.236
x1 = 0.5669 | 0.234
x1 = 0.5782 | 0.232
x1 = 0.5889 | 0.229
x1 = 0.5991 | 0.227
x1 = 0.6088 | 0.224
x1 = 0.6201 | 0.221
x1 = 0.6308 | 0.217
x1 = 0.6408 | 0.214
x1 = 0.6504 | 0.211
x1 = 0.6594 | 0.208
x1 = 0.668 | 0.205
x1 = 0.6762 | 0.202
x1 = 0.684 | 0.199
x1 = 0.7031 | 0.189
x1 = 0.7191 | 0.182
x1 = 0.7334 | 0.176
x1 = 0.7483 | 0.169
x1 = 0.7638 | 0.162
x1 = 0.7799 | 0.154
x1 = 0.7968 | 0.145
x1 = 0.8144 | 0.135
x1 = 0.8298 | 0.126
x1 = 0.8458 | 0.116
x1 = 0.8624 | 0.106
x1 = 0.8797 | 0.0939
x1 = 0.8977 | 0.0815
x1 = 0.9133 | 0.07
x1 = 0.9294 | 0.0578
x1 = 0.9461 | 0.0452
x1 = 0.9634 | 0.0311
x1 = 0.9814 | 0.016

CCCCCOCCCCC [dipentyl ether] + CCCCCCCCCCCCCCCC
Conditions | excess molar enthalpy [kcal/mol]
x1 = 0.0349 | 0.00884
x1 = 0.0674 | 0.0165
x1 = 0.0979 | 0.0229
x1 = 0.1264 | 0.0287
x1 = 0.1531 | 0.0335
x1 = 0.1783 | 0.0378
x1 = 0.2066 | 0.0423
x1 = 0.233 | 0.0461
x1 = 0.2577 | 0.0495
x1 = 0.2809 | 0.0523
x1 = 0.3027 | 0.0545
x1 = 0.3231 | 0.0564
x1 = 0.3459 | 0.0583
x1 = 0.3673 | 0.0598
x1 = 0.3873 | 0.0612
x1 = 0.4061 | 0.0621
x1 = 0.4238 | 0.0629
x1 = 0.4405 | 0.0633
x1 = 0.4593 | 0.0638
x1 = 0.4768 | 0.0641
x1 = 0.4933 | 0.0643
x1 = 0.5087 | 0.0643
x1 = 0.5158 | 0.0645
x1 = 0.5271 | 0.0645
x1 = 0.5389 | 0.0643
x1 = 0.5491 | 0.0643
x1 = 0.5598 | 0.0641
x1 = 0.5706 | 0.0638
x1 = 0.5823 | 0.0633
x1 = 0.5943 | 0.0629
x1 = 0.6067 | 0.0624
x1 = 0.6197 | 0.0617
x1 = 0.6333 | 0.0607
x1 = 0.645 | 0.06
x1 = 0.6527 | 0.059
x1 = 0.6699 | 0.0578
x1 = 0.6831 | 0.0566
x1 = 0.6968 | 0.0552
x1 = 0.7111 | 0.0535
x1 = 0.7238 | 0.0519
x1 = 0.737 | 0.0504
x1 = 0.7506 | 0.0485
x1 = 0.7648 | 0.0464
x1 = 0.7795 | 0.0442
x1 = 0.7984 | 0.0416
x1 = 0.8182 | 0.039
x1 = 0.8315 | 0.0363
x1 = 0.8512 | 0.0332
x1 = 0.8718 | 0.0301
x1 = 0.8935 | 0.0265
x1 = 0.9162 | 0.0227
x1 = 0.9292 | 0.0196
x1 = 0.9425 | 0.0163
x1 = 0.9563 | 0.0124
x1 = 0.9704 | 0.0086
x1 = 0.985 | 0.00454

CCCCCCCCC(C)=O [2-decanone] + CCCCCCCCCCCCCCCC
Conditions | excess molar enthalpy [kcal/mol]
x1 = 0.0372 | 0.048
x1 = 0.0716 | 0.087
x1 = 0.1038 | 0.119
x1 = 0.1337 | 0.145
x1 = 0.1617 | 0.167
x1 = 0.188 | 0.185
x1 = 0.2169 | 0.203
x1 = 0.2437 | 0.217
x1 = 0.2688 | 0.229
x1 = 0.2923 | 0.239
x1 = 0.3143 | 0.246
x1 = 0.335 | 0.253
x1 = 0.3574 | 0.258
x1 = 0.3784 | 0.263
x1 = 0.3981 | 0.266
x1 = 0.4166 | 0.268
x1 = 0.434 | 0.27
x1 = 0.4503 | 0.27
x1 = 0.4686 | 0.27
x1 = 0.4857 | 0.27
x1 = 0.5017 | 0.269
x1 = 0.5168 | 0.268
x1 = 0.531 | 0.266
x1 = 0.5443 | 0.264
x1 = 0.559 | 0.261
x1 = 0.5728 | 0.259
x1 = 0.5858 | 0.256
x1 = 0.598 | 0.253
x1 = 0.6095 | 0.25
x1 = 0.6204 | 0.247
x1 = 0.6324 | 0.243
x1 = 0.6436 | 0.239
x1 = 0.6542 | 0.236
x1 = 0.6641 | 0.232
x1 = 0.6735 | 0.228
x1 = 0.6824 | 0.224
x1 = 0.6964 | 0.217
x1 = 0.7102 | 0.21
x1 = 0.7245 | 0.204
x1 = 0.7393 | 0.197
x1 = 0.7521 | 0.191
x1 = 0.7655 | 0.184
x1 = 0.7793 | 0.176
x1 = 0.7936 | 0.168
x1 = 0.8084 | 0.159
x1 = 0.8238 | 0.149
x1 = 0.8372 | 0.14
x1 = 0.8511 | 0.13
x1 = 0.8654 | 0.12
x1 = 0.8802 | 0.109
x1 = 0.8955 | 0.0966
x1 = 0.9114 | 0.0837
x1 = 0.9251 | 0.0722
x1 = 0.9391 | 0.0598
x1 = 0.9537 | 0.0461
x1 = 0.9686 | 0.0318
x1 = 0.9841 | 0.0163
